Data: patent US20240009304A1, “USE OF NGF ANTIBODY IN CIPN PAIN” (Dartsbio Pharmaceuticals Ltd., priority 2020, published 2024)
Several values for one entry are separate records, joined by “and”; a condition that tells them apart may be missing. Equal values may be shown once.

How the values were obtained:
Format in all cases: in vivo
[1] = system: paclitaxel-induced neuropathic pain model in SD rats; assay: acetone cold allodynia, paclitaxel-induced neuropathic pain model; settings: s.c.
Method: (§1) All female SD rats were measured on day −5 (D-5) and day −4 (D-4) for basal values of von Frey mechanical allodynia and acetone cold allodynia (the day on formally establishing the model with paclitaxel administration was recorded as DO). SD rats were randomly divided into 5 groups according to body weight, which were blank control group, vehicle control (Vehicle control), s.c., D-3/D3/D9 group, DS002 0.1 mg/kg, s.c., D-3/D3/D9 group, DS002 0.5 mg/kg, s.c., D-3/D3/D9 group, DS002 2.5 mg/kg, s.c., D-3/D3/D9 group, respectively. Except for the blank control group, the other groups of animals were injected intraperitoneally with a chemotherapeutic agent solution on DO, D2, D4 and D6, respectively, to establish a chemotherapeutic agent-induced neuropathic pain model in SD rats. Wherein, von Frey is a stimulating material used in the measurement method of mechanical stimulation pain threshold; acetone is a stimulating substance used in the measurement method of cold pain threshold.
(§2) Except for the blank control group, the other four groups were administered subcutaneously with DS002 on D-3, D3 and D9, respectively, and the von Frey echanical allodynia and acetone cold allodynia were measured on D7, D14 and D8, D15, respectively. The mechanical paw withdrawal threshold and the score and frequency of acetone-induced foot withdrawal behavior at the corresponding time point were recorded (for testing and calculation methods, see Yoon et al., pain, 59(3), 369-376. & Flatters et al., pain, 2004, 109 (1-2):150-161).
(§3) The above experimental method was used, except for the blank control group, the other groups of animals were injected intraperitoneally with a chemotherapeutic agent solution (4 mg/kg) on DO, D2, D4 and D6, respectively, to establish a paclitaxel-induced neuropathic pain model in SD rats, namely the CIPN pain model.

[2] = system: cisplatin-induced neuropathic pain model in SD rats; assay: acetone cold allodynia, cisplatin-induced neuropathic pain model; settings: for Mean value of response frequency of cold allodynia / Mean value of acetone-induced foot withdrawal behavior total score: s.c.
Method: as §2
(§4) With reference to the above-mentioned experimental method and Example 1, except for the blank control group, the animals of other groups were injected with a cisplatin solution (4 mg/kg) in the tail veins on DO and D6, respectively, to establish a cisplatin-induced neuropathic pain model in SD rats, namely the CIPN pain model.
(§5) The basal values of the mechanical allodynia and cold allodynia were measured on day 5 (D-5) and day 4 (D-4) before modeling. On day 3 (D-3), the normal rats were divided into 4 groups by random block method and administered according to their body weight. The average weight of animals in each group after grouping was about 250 g. As for the animals of blank control group, vehicle control, s.c., D-3/D3/D9/D16 group, test sample DS002, 0.02 mg/kg, s.c., D-3/D3/D9/D16 group and test sample DS002, 0.5 mg/kg, s.c., D-3/D3/D9/D16 group, the basal values of mechanical paw withdrawal threshold were 26.00±0.00 g, 23.95±1.63 g, 23.50±1.68 g and 22.77±1.71 g, respectively; the basal values of acetone-induced foot withdrawal behavior total score were 0.50±0.34, 0.55±0.31, 0.27±0.19 and 0.55±0.28, respectively; the basal values of the response frequency were 6.00±4.27%, 7.27±4.07%, 3.64±2.44% and […], respectively.

[3] = system: cisplatin-induced neuropathic pain model in SD rats; assay: von Frey mechanical allodynia, cisplatin-induced neuropathic pain model; settings: for Mean value of mechanical paw withdrawal threshold: s.c.
Method: as §1, §2, §4, §5

[4] = system: paclitaxel-induced neuropathic pain model in SD rats; assay: von Frey mechanical allodynia, paclitaxel-induced neuropathic pain model; settings: for Mean value of mechanical paw withdrawal threshold: s.c., D-3/D3/D9
Method: as §1, §2, §3

[5] = system: vincristine-induced neuropathic pain model in SD rats; assay: acetone cold allodynia, vincristine-induced neuropathic pain model; settings: s.c.
Method: as §1, §2
(§6) With reference to the above-mentioned experimental method and Example 1, except for the blank control group, the other groups of animals were injected intraperitoneally with a vincristine solution (0.1 mg/kg) from DO to D9, respectively, to establish a vincristine-induced neuropathic pain model in SD rats, namely, the CIPN pain model.

[6] = system: vincristine-induced neuropathic pain model in SD rats; assay: von Frey mechanical allodynia, vincristine-induced neuropathic pain model; settings: for Mean value of mechanical paw withdrawal threshold: s.c.
Method: as §1, §2, §6

[7] = 0.1 mg/kg, D-3/D3/D9, D-4 basal value before administration
[8] = 0.5 mg/kg, D-3/D3/D9, D-4 basal value before administration
[9] = 2.5 mg/kg, D-3/D3/D9, D-4 basal value before administration
[10] = 0.5 mg/kg, D-3/D3/D9/D16, D22, listed as D5002

Q: What does the source list for “DS002: humanized recombinant monoclonal antibody targeting nerve growth factor, IgG1 subtype, kappa light chain; heavy/light chain SEQ ID NO:3 and 4”?
A: Mean value of acetone-induced foot withdrawal response score ([1]; 0.1 mg/kg, D-3/D3/D9, D8): 3.70; Mean value of response frequency of cold allodynia ([1]; 0.1 mg/kg, D-3/D3/D9, D8): 63.50%; Mean value of acetone-induced foot withdrawal response score ([1]; 0.1 mg/kg, D-3/D3/D9, D15): 1.80; Mean value of response frequency of cold allodynia ([1]; 0.1 mg/kg, D-3/D3/D9, D15): 33.40%; Mean value of acetone-induced foot withdrawal response score [1, 7]: 0.60; Mean value of response frequency of cold allodynia [1, 7]: 13.40%; Mean value of acetone-induced foot withdrawal response score ([1]; 0.5 mg/kg, D-3/D3/D9, D8): 2.50; Mean value of response frequency of cold allodynia ([1]; 0.5 mg/kg, D-3/D3/D9, D8): 50.10%; Mean value of acetone-induced foot withdrawal response score ([1]; 0.5 mg/kg, D-3/D3/D9, D15): 1.00; Mean value of response frequency of cold allodynia ([1]; 0.5 mg/kg, D-3/D3/D9, D15): 23.20%; Mean value of acetone-induced foot withdrawal response score [1, 8]: 0.50; Mean value of response frequency of cold allodynia [1, 8]: 13.30%; Mean value of acetone-induced foot withdrawal response score ([1]; 2.5 mg/kg, D-3/D3/D9, D8): 3.30; Mean value of response frequency of cold allodynia ([1]; 2.5 mg/kg, D-3/D3/D9, D8): 70.0%; Mean value of acetone-induced foot withdrawal response score ([1]; 2.5 mg/kg, D-3/D3/D9, D15): 0.70; Mean value of response frequency of cold allodynia ([1]; 2.5 mg/kg, D-3/D3/D9, D15): 19.90%; Mean value of acetone-induced foot withdrawal response score [1, 9]: 0.90; Mean value of response frequency of cold allodynia [1, 9]: 19.90%; Mean value of response frequency of cold allodynia ([2]; 0.02 mg/kg, D-3/D3/D9/D16, D8): 7.27±4.07% and 7.27%; Mean value of response frequency of cold allodynia ([2]; 0.02 mg/kg, D-3/D3/D9/D16, D15): 16.36±5.92% and 16.36%; Mean value of response frequency of cold allodynia ([2]; 0.02 mg/kg, D-3/D3/D9/D16, D22): 9.09±4.15% and 9.09%; Mean value of response frequency of cold allodynia ([2]; 0.02 mg/kg, D-3/D3/D9/D16, D-4 basal value before administration): 3.64±2.44% and 3.64%; Mean value of response frequency of cold allodynia ([2]; 0.5 mg/kg, D-3/D3/D9/D16, D8): 7.27±4.07% and 7.27%; Mean value of response frequency of cold allodynia ([2]; 0.5 mg/kg, D-3/D3/D9/D16, D15): 7.27±4.07% and 7.27%; Mean value of acetone-induced foot withdrawal behavior total score ([2]; 0.5 mg/kg, D-3/D3/D9/D16, D22): 0.73; Mean value of response frequency of cold allodynia ([2]; 0.5 mg/kg, D-3/D3/D9/D16, D22): 10.91%; Mean value of acetone-induced foot withdrawal behavior total score [2, 10]: 0.73±0.30; Mean value of response frequency of cold allodynia [2, 10]: 10.91±4.15%; Mean value of response frequency of cold allodynia ([2]; 0.5 mg/kg, D-3/D3/D9/D16, D-4 basal value before administration): 5.45±2.82% and 5.45%; cold pain threshold of the rats compared with the vehicle control ([2]; summary in words): not significantly improved; Mean value of mechanical paw withdrawal threshold ([3]; 0.02 mg/kg, D-3/D3/D9/D16, D7): 8.87 ± 1.98 g; Mean value of mechanical paw withdrawal threshold ([3]; 0.02 mg/kg, D-3/D3/D9/D16, D14): 7.22 ± 0.77 g; Mean value of mechanical paw withdrawal threshold ([3]; 0.02 mg/kg, D-3/D3/D9/D16, D21): 14.22 ± 2.63 g; Mean value of mechanical paw withdrawal threshold ([3]; 0.02 mg/kg, D-3/D3/D9/D16, D-5 basal value before administration): 23.50 ± 1.68 g; Mean value of mechanical paw withdrawal threshold ([3]; 0.5 mg/kg, D-3/D3/D9/D16, D7): 7.62 ± 1.18 g; Mean value of mechanical paw withdrawal threshold ([3]; 0.5 mg/kg, D-3/D3/D9/D16, D14): 10.73 ± 1.60 g; Mean value of mechanical paw withdrawal threshold ([3]; 0.5 mg/kg, D-3/D3/D9/D16, D21): 16.37 ± 2.36 g; Mean value of mechanical paw withdrawal threshold ([3]; 0.5 mg/kg, D-3/D3/D9/D16, D-5 basal value before administration): 22.77 ± 1.71 g; mechanical paw withdrawal threshold of rats compared with the Vehicle control ([3]; summary in words): significantly increased; Mean value of mechanical paw withdrawal threshold ([4]; 0.1 mg/kg, D7, paclitaxel model): 8.90 ± 1.20 g; Mean value of mechanical paw withdrawal threshold ([4]; 0.1 mg/kg, D14, paclitaxel model): 10.55 ± 1.04 g; Mean value of mechanical paw withdrawal threshold ([4]; 0.1 mg/kg, D-5 basal value before administration, paclitaxel model): 13.48 ± 1.03 g; Mean value of mechanical paw withdrawal threshold ([4]; 0.5 mg/kg, D7, paclitaxel model): 10.40 ± 1.33 g; Mean value of mechanical paw withdrawal threshold ([4]; 0.5 mg/kg, D14, paclitaxel model): 10.94 ± 1.16 g; Mean value of mechanical paw withdrawal threshold ([4]; 0.5 mg/kg, D-5 basal value before administration, paclitaxel model): 13.25 ± 0.98 g; Mean value of mechanical paw withdrawal threshold ([4]; 2.5 mg/kg, D7, paclitaxel model): 7.74 ± 1.19 g; Mean value of mechanical paw withdrawal threshold ([4]; 2.5 mg/kg, D14, paclitaxel model): 12.30 ± 0.94 g; Mean value of mechanical paw withdrawal threshold ([4]; 2.5 mg/kg, D-5 basal value before administration, paclitaxel model): 13.50 ± 0.82 g; pain threshold ([4]; 0.1-2.5 mg/kg subcutaneously every 6 days for 3 consecutive times, paclitaxel-induced rat neuropathic pain model, summary in words): preventatively increased; mechanical paw withdrawal threshold of rats compared with the Vehicle control ([4]; paclitaxel model, summary in words): significantly increased; Mean value of response frequency of cold allodynia ([5]; 0.1 mg/kg, D-3/D3/D9, D8): 58.00±6.96% and 58.00%; Mean value of acetone-induced foot withdrawal behavior total score ([5]; 0.1 mg/kg, D-3/D3/D9, D15): 3.00; Mean value of response frequency of cold allodynia ([5]; 0.1 mg/kg, D-3/D3/D9, D15): 42.00%; Mean value of acetone-induced foot withdrawal behavior total score [5, 7]: 0.10; Mean value of response frequency of cold allodynia [5, 7]: 2.00%; Mean value of response frequency of cold allodynia ([5]; 0.5 mg/kg, D-3/D3/D9, D8): 44.00±7.77% and 44.00%; Mean value of acetone-induced foot withdrawal behavior total score ([5]; 0.5 mg/kg, D-3/D3/D9, D15): 2.80; Mean value of response frequency of cold allodynia ([5]; 0.5 mg/kg, D-3/D3/D9, D15): 34.00%; Mean value of acetone-induced foot withdrawal behavior total score [5, 8]: 0.30; Mean value of response frequency of cold allodynia [5, 8]: 4.00%; Mean value of response frequency of cold allodynia ([5]; 2.5 mg/kg, D-3/D3/D9, D8): 44.00±4.99% and 44.00%; Mean value of acetone-induced foot withdrawal behavior total score ([5]; 2.5 mg/kg, D-3/D3/D9, D15): 1.80; Mean value of response frequency of cold allodynia ([5]; 2.5 mg/kg, D-3/D3/D9, D15): 24.00%; Mean value of acetone-induced foot withdrawal behavior total score [5, 9]: 0.30; Mean value of response frequency of cold allodynia [5, 9]: 4.00%; Mean value of mechanical paw withdrawal threshold ([6]; 0.1 mg/kg, D-3/D3/D9, D7): 7.02 ± 1.05 g; Mean value of mechanical paw withdrawal threshold ([6]; 0.1 mg/kg, D-3/D3/D9, D14): 9.76 ± 1.10 g; Mean value of mechanical paw withdrawal threshold ([6]; 0.1 mg/kg, D-3/D3/D9, D-5 basal value before administration): 15.00 ± 0.00 g; Mean value of mechanical paw withdrawal threshold ([6]; 0.5 mg/kg, D-3/D3/D9, D7): 8.20 ± 1.78 g; Mean value of mechanical paw withdrawal threshold ([6]; 0.5 mg/kg, D-3/D3/D9, D14): 11.00 ± 0.94 g; Mean value of mechanical paw withdrawal threshold ([6]; 0.5 mg/kg, D-3/D3/D9, D-5 basal value before administration): 15.00 ± 0.00 g; Mean value of mechanical paw withdrawal threshold ([6]; 2.5 mg/kg, D-3/D3/D9, D7): 8.43 ± 0.92 g; Mean value of mechanical paw withdrawal threshold ([6]; 2.5 mg/kg, D-3/D3/D9, D14): 13.31 ± 0.76 g; Mean value of mechanical paw withdrawal threshold ([6]; 2.5 mg/kg, D-3/D3/D9, D-5 basal value before administration): 14.16 ± 0.60 g; mechanical paw withdrawal threshold of rats compared with the Vehicle control ([6]; summary in words): significantly increased
